The pKa is the pH at which an ionisable group is half protonated.

Experimental findings from EP0623599A1 (CIBA-GEIGY AG, priority 1993, dated 1994) are described below.

Data set [1] can be described thus: Fluorescence change between protonated and deprotonated form of the fluorophore. It is filed as physicochemical. The note with it: in Tetrahydrofuran, pH set with 1 M HCl or 1,0 M NaOH, fluorophore 10⁻⁷ mol/l. From the text: Die Ergebnisse sind in Tabelle 2 angegeben.
Data set [2] in a line: pKa determination from fluorescence intensity as a function of pH. The note with it: for pKa: 30 vol% methanol / 70 vol% phosphate buffer, pH 6.
Text: (§2) Die Fluorophore werden in einem Gemisch aus 30 Vol.-% Methanol und 70 Vol.-% Phosphatpuffer gelöst und verschiedene pH-Werte zwischen 6 und 13 eingestellt. Die Messlösungen werden in eine Küvette gefüllt und die Fluoreszenzintensität mit einem Spektrophotometer gemessen. Die Fluoreszenzintensität wird als Funktion des pH-Wertes aufgetragen und aus dem Wendepunkt der Kurve der pKa-Wert ermittelt. […] Die Konzentration der Fluorophore beträgt jeweils 10⁻⁷ mol/l.
A short description of data set [3]: Optical potassium determination with sensor membrane (decrease of fluorescence intensity). The note with it: aqueous KCl, 1 ml/min, PVC membrane with Valinomycin. The method, then: a) Als Trägermaterial wird vorbehandeltes Glas verwendet. Runde Glasscheiben (Durchmesser 18 mm, Dicke 0,17 mm) werden eine Stunde in eine Lösung von 10 Vol-% Dimethyl-dodecylchlorsilan in Isopropanol getaucht. Danach wäscht man die Glasscheiben nacheinander mit je 200 ml Isopropanol, Ethanol und Methanol und trocknet 1 h bei 110 °C. Die hydrophobisierte Oberfläche weist eine verbesserte Haftung der Membranschicht auf. b) Herstellung der Beschichtungslösung. Die folgenden Bestandteile werden zusammen mit 1,5 ml Tetrahydrofuran in eine 2 ml Flasche gegeben und bis zur Lösung der Komponenten geschüttelt: • 1. 80 mg Polyvinylchlorid (Fluka, 81392) • 2. 160 mg Bis-(2-ethylhexyl)sebacat (Weichmacher) • 3. 5 mg Valinomycin • 4. 1,5 mg Kalium-tetrakis(4-fluorphenyl)borat • 5. 2 mg Fluorophor
c) Herstellung von beschichteten Glasträgern. Die Glasträger werden in der Kammer eines Schleuderbeschichtungsapparats (Optocoat OS 35var, Willer Company, CH-8484 Weisslingen) befestigt. Die Kammer wird mit 10 ml Tetrahydrofuran gespült und 2 min bei 3800 Umdrehungen/Minute rotiert. Danach werden 50 µl der jeweiligen Beschichtungslösung auf den Glasträger pipettiert und der Glasträger noch 10 sec rotiert. Man entfernt den mit einer Membran beschichteten Glasträger und trocknet ihn 10 min an der Luft. d) Spektrale Eigenschaften der Membranen. Die beschichteten Glasträger werden in einer optischen Zelle befestigt, in der die Membran mit der Messflüssigkeit in Berührung steht. Die Membran kann in der optischen Zelle optisch angeregt und die Fluoreszenzstrahlung gemessen werden. Die optische Zelle wird in ein Spektrofluorometer (Pekin-Elmer LS-50) gebracht und das Absorptions- und Emmissionsspektrum gemessen. Ferner wird die relative Fluoreszenzquantenausbeute gemäss der von Calvert und Pitts in Photochemistry, Verlag: John Wiley and Sons Inc., Seiten 799 bis 805 (1966) beschriebenen Methode mit Fluorescein als Standard bestimmt. Die Ergebnisse sind in Tabelle 1 angegeben. Tabelle 1:
(§1) Es wird die gleiche Versuchsanordnung wie in Beispiel B1d verwendet und die Absorptions- sowie Emmissionswellenlängen auf die entsprechenden Maxima der in der Membran eingesetzten Fluorophore eingestellt. Die Membran wird mit einer wässrigen KCl-Lösung definierter Konzentration in Kontakt gebracht, indem man die Lösung mit einer Geschwindigkeit von 1 ml/min durch die Zelle pumpt und die Änderung der Fluoreszenzintensität bestimmt. Vor der Messung und nach jeder Messung wird mit Kaliumionen-freien Pufferlösungen gespült und die Fluoreszenzintensität bestimmt, um die Basislinie festzulegen. Die Erniedrigung der Fluoreszenzintensität in Prozent bei der jeweiligen Kaliumkonzentration für den Fluorophor gemäss Beispiel A5 (Membran B1) sind in der Tabelle 3 angegeben.

The nature of data set [4]: Optical sodium determination with sensor membrane (decrease of fluorescence intensity). As to conditions: buffer pH 5, Polyurethan (Tecoflex) membrane with Natrium Ionophor V. Here is the method:
as §1, with “angegeben. Tabelle 3:” for “angegeben.”
Es wird wie in Beispiel C1 verfahren und die Natriumionenkonzentration mit einer Membran aus 2 mg Fluorophor gemäss Beispiel A5, 30 mg Natriumionophor (4-Octadecanoyloxymethyl-N,N,N,N-tetracyxlohexyl- 1 ,2-phenylendioxy-diacetamid, Fluka Natrium Ionophor V, Katalog Nr. 71738), 2 mg Kalium-tetrakis(4-chlorphenyl)borat, 75 mg Polyurethan (Tecoflex®), 160 mg Bis-2-ethylhexyl-sebacat als Weichmacher und 1 ml Tetrahydrofuran bestimmt. Der Sensor wird einer Pufferlösung bei pH 5 (0,1 Mol Tris-hydroxymethyl-aminomit-methan und 1M HCl) unterschiedlichen Natriumkonzentrationen ausgesetzt. Die Ergebnisse sind in Tabelle 6 angegeben.

The nature of data set [5]: Optical calcium determination with sensor membrane (decrease of fluorescence intensity). The note with it: buffer pH 5, Polyurethan (Tecoflex) membrane with Kalzium Ionophor I. The method, then:
as §1, with “angegeben. Tabelle 3:” for “angegeben.”
Es wird wie in Beispiel C1 verfahren und die Kalziumionenkonzentration mit einer Membran aus 2 mg Fluorophor gemäss Beispiel A5, 30 mg Kalziumionophor ((-)-(R,R)-N,N-[Bis(11-ethoxycarbonyl)undecyl]-N,N-4,5-tetramethyl-3,6-dioxaoctandia mid, Fluka Kalzium Ionophor I, Katalog Nr. 21192), 6 mg Kalium-tetrakis(4-chlorphenyl)borat, 75 mg Polyurethan (Tecoflex®), 160 mg Bis-2-ethylhexyl-sebacat als Weichmacher und 1 ml Tetrahydrofuran bestimmt. Der Sensor wird einer Pufferlösung bei pH 5 (0,02M NaOH und Essigsäure) unterschiedlichen Kalziumkonzentrationen ausgesetzt. Die Ergebnisse sind in Tabelle 7 angegeben.

For data set [6] the following is noted: 30% methanol phosphate buffer, pH 6.
Text: as §2

Like-named read-outs stand apart in the source and are kept apart here.

In the case of `CCCCCCC(=O)Nc1ccc2cc3ccc(NC(=O)CCCCCC)cc3nc2c1`, the “Änderung Fluoreszenzintensität” value in data set [1] worked out at 24 Prozent. In addition, in data set [2], the pKa was found to be 10.
For the molecule `CCCCCCCCNc1ccc2cc3ccc(NCCCCCCCC)cc3nc2c1` [Beispiel A1, 3,6-Bis(n-octylamino)-acridin], the “% Erniedrigung Fluoreszenzintensität” value is recorded as 5% in data set [3] (Kalium-Konzentration 0,1 mM); 15% in data set [3] (Kalium-Konzentration 0,5 mM); 25% in data set [3] (Kalium-Konzentration 1,0 mM); 39% in data set [3] (Kalium-Konzentration 5,0 mM); 45% in data set [3] (Kalium-Konzentration 10,0 mM); 75% in data set [3] (Kalium-Konzentration 100,0 mM). The “Änderung Fluoreszenzintensität” value in data set [1] is given as 44 Prozent. For the same molecule, in data set [2], the pKa turned out to be 10.
Turning to `CCCCCCCCCCCCCCCCCCCCNc1ccc2cc3ccc(NCCCCCCCCCCCCCCCCCCCC)cc3nc2c1` [Beispiel A2, 3,6-Bis(n-eicosylamino)-acridin], in data set [1], the “Änderung Fluoreszenzintensität” value amounted to 41 Prozent. This molecule also gave a pKa in data set [2] of 11.1.
For the molecule `CCCCCCCCCCCCCCCCCCCCN=c1ccc2c(-c3ccccc3C(=O)O)c3ccc(N(CC)CC)cc3oc-2c1` [Beispiel A5], the “% Erniedrigung Fluoreszenzintensität” value in data set [3] (Kalium-Konzentration 0,01 mM) was 5%; in data set [3] (Kalium-Konzentration 0,1 mM), 20%; in data set [3] (Kalium-Konzentration 0,5 mM), 35%; in data set [3] (Kalium-Konzentration 1,0 mM) it was 45%; in data set [3] (Kalium-Konzentration 5,0 mM), 53%; in data set [3] (Kalium-Konzentration 10,0 mM), 60%. Further, the “% Erniedrigung Fluoreszenzintensität” value in data set [3] (Kalium-Konzentration 100,0 mM) amounted to 68%; in data set [4] (Natrium-Konzentration 0 mM), 0%; in data set [4] (Natrium-Konzentration 3 mM), 15%; in data set [4] (Natrium-Konzentration 15 mM), 41%; in data set [4] (Natrium-Konzentration 30 mM) it was 54%; in data set [4] (Natrium-Konzentration 90 mM), 72%. The “% Erniedrigung Fluoreszenzintensität” value in data set [4] (Natrium-Konzentration 150 mM) is reported as 79%; in data set [4] (Natrium-Konzentration 210 mM), 83%; in data set [4] (Natrium-Konzentration 300 mM), 86%; in data set [5] (Kalzium-Konzentration 0,1 mM), 26,5%; in data set [5] (Kalzium-Konzentration 0,5 mM), 43,1%; in data set [5] (Kalzium-Konzentration 0 mM) it was 0%. Also, the “% Erniedrigung Fluoreszenzintensität” value in data set [5] (Kalzium-Konzentration 1,0 mM) is recorded as 50,6%; in data set [5] (Kalzium-Konzentration 3,0 mM), 61,0%; in data set [5] (Kalzium-Konzentration 5,0 mM), 65,8%; in data set [5] (Kalzium-Konzentration 7,0 mM), 68,1%; in data set [5] (Kalzium-Konzentration 10,0 mM) it was 71,0%. For the same molecule, the “Änderung Fluoreszenzintensität” value in data set [1] came to 33 Prozent. This molecule returned a pKa in data set [2] of 10.3.
Regarding `CCCCCCCCN=c1ccc2c(-c3ccccc3C(=O)O)c3ccc(NCCCCCCCC)cc3oc-2c1` [Beispiel A6], the “% Erniedrigung Fluoreszenzintensität” value in data set [3] (Kalium-Konzentration 0,1 mM) is reported as 36%; in data set [3] (Kalium-Konzentration 0,5 mM), 41%; in data set [3] (Kalium-Konzentration 1,0 mM), 43%; in data set [3] (Kalium-Konzentration 5,0 mM), 48%; in data set [3] (Kalium-Konzentration 10,0 mM) it was 52%. For the same molecule, the pKa-Wert in data set [6] was 12,0. In data set [1], the “Änderung Fluoreszenzintensität” value was found to be 20 Prozent.
On to `CCCCCCCCCCCCCCCCCC(=O)N=c1ccc2c(-c3ccccc3C(=O)O)c3ccc(N(CC)CC)cc3oc-2c1` [Beispiel A7], for which the “Änderung Fluoreszenzintensität” value in data set [1] is listed as 15 Prozent. For the same molecule, the pKa-Wert in data set [2] (30 Vol.-% Methanol / 70 Vol.-% Phosphatpuffer, pH 6 to 13, fluorophore 10⁻⁷ mol/l, inflection point of curve) was 10,1.
